Experimental findings from patent publication US4560689A, “Heterocyclic-fused pyrazolo-[3,4-d]pyridin-3-ones as benzodiazepine receptor modulators” (Ciba-Geigy Corporation, priority 1984, dated 1985) are described below.

Molecules are shown by their SMILES. Structures can show the parent of a compound that is named as a salt.

The subject of experiment [1] is benzodiazepine receptor. The experiment can be described thus: in vivo benzodiazepine receptor binding (3H-flunitrazepam). The settings on record: 30 mg/kg p.o. in the mouse. On the procedure: In vivo benzodiazepine receptor binding is determined essentially as described in Eur. J. Pharmacol. 48, 213 (1978) and Nature 275, 551 (1978).
Test compounds in a corn starch vehicle are administered orally or intraperitioneally to mice or rats. Thirty minutes later, 3H-flunitrazepam(2 nmoles/Kg in saline) is injected into the tail vein, and the animals are sacrificed 20 minutes after injection of the flunitrazepam. The brains are then assayed by determining radioactivity in a liquid scintillation counter for binding of the radioligand to the receptors. A decrease in the binding of 3H-flunitrazepam in the drug-treated animals (as compared with the binding observed in animals treated with vehicle alone) is indicative of benzodiazepine receptor binding by the test compound.

Experiment [2] has as its target benzodiazepine receptor. The experiment can be described thus: in vitro benzodiazepine receptor binding assay (tritiated diazepam displacement). As to conditions: inhibition of specific binding of 2 nM tritiated diazepam, membranes from rat fore-brain, 0°-5°, 30 minutes, pH 7.5. On the procedure: The benzodiazepine receptor binding properties indicative of the nervous system regulatory activity of said new compounds are determined in the receptor binding assay in vitro, e.g. as described in Nature 266, 732 (1977) or Proc. Nat. Acad. Sci. USA 74, 3805 (1977). Diazepam binds specifically and with high affinity to crude synaptosomal membrane preparations from rat fore-brain. This binding is inhibited by other anxiolytic compounds. When tritiated diazepem is used, the interaction of other drugs with said receptor can be readily assessed thus: membranes from rat fore-brain are incubated at 0°-5° for 30 minutes with 2 nM tritiated diazepam and various concentrations of the test substance in a buffer medium maintained at pH 7.5. Solutions of the various concentrations of test substances are prepared by dilution of a 4.2 mM stock solution in dimethylacetamide-ethanol (1:10) with 50 mM pH7.5. Tris-HCl buffer. The membranes, containing the receptors with various amounts of tritiated diazepam, are filtered onto glass fiber filters, which are then analyzed in a liquid scintillation counter. The concentration of the compounds of this invention, required to inhibit the specific binding of 2 nM of tritiated diazepam by 50%, i.e. the IC50, is determined graphically.

As to `O=c1c2c[nH]c3ccncc3c-2nn1-c1ccccc1` [Example 1, 2-phenyl-pyrazolo[4,3-c][1,6]naphthyridin-3(5H)-one], the “inhibits flunitrazepam binding in vivo” value with benzodiazepine receptor [1] is recorded as “about 75%”.

Consider `O=c1c2c[nH]c3ccncc3c-2nn1-c1ccc(Cl)cc1` [Example 2, 2-p-chlorophenyl-pyrazolo[4,3-c][1,6]naphthyridin-3(5H)-one], for which, at benzodiazepine receptor [2], the IC50 – broadly, the concentration needed to halve the response being measured – was ~0.2 nM.

Regarding `O=c1c2c[nH]c3ccncc3c-2nn1-c1cccnc1` [Example 5a, 2-(3-pyridyl)pyrazolo[4,3-c][1,6]naphthyridin-3-(5H)-one hydrochloride], the concentration for half-maximal inhibition (IC50) at benzodiazepine receptor [2] is ~3 nM.

For the compound `O=c1c2c[nH]c3sccc3c-2nn1-c1ccc(Cl)cc1` [Example 9, 2-(4-chlorophenyl)-thieno[2,3-b]pyrazolo[3,4-d]pyridin-3(5H)-one hydrate], the IC50 at benzodiazepine receptor [2] was ~9 nM.
